pIC50: −log10 of the molar value. Read-outs that look alike come from different tables or passages of the source.

The subject of one assay is A549 NSCLC cells. Nature of the assay: NSCLC cell proliferation in vitro (MTS assay). In kind it is cell-based, human. To be noted: 72 hours, MTS assay. In general terms: Tetrazolium dyes change colour on reduction, which living cells bring about.
Another assay relates to H1975 NSCLC cells. The experiment in a line: NSCLC cell proliferation in vitro (MTS assay). In kind it is cell-based, human. To be noted: 72 hours. As to the method:
(§1) Cell culture: Human breast and non-small cell lung cancer cells (MCF7, ZR75-1, MDAMB231, A549, H23, H1975, […]) were from ATCC. MCF7-HER2 were a kind gift of Dr. Dennis Slamon (23). Cell lines were routinely maintained in RPMI 1640 or DMEM medium with 10% fetal bovine serum (FBS) (Sigma-Aldrich) and 1% Antibiotic-Antimycotic solution 100× (Mediatech, Herndon, Va.). When indicated, for estrogen-free conditions, media was changed 48 h before experiments to phenol-red free RPMI 1640/DMEM with 1% dextran-coated, charcoal-treated (DCC)-FBS (24,25). Otherwise experiments were performed in phenol-red free RPMI 1640/DMEM medium with 5% DCC-FBS.
(§2) Cell proliferation assays: breast and lung tumor cells (between […]) were plated in 96 well plates using their respective medium with 10% FBS. For experiments using estradiol-17β, cells were rinsed with PBS and incubated with phenol redfree medium with 1% DCC-FBS for 48 hours as described before (24,25). Cells were then treated with different concentrations of SERDs ranging between 0.0001-100 μM. […] Cell counts and viability tests (Trypan blue) were done every 24 hr for 3 days. After 72 hr, proliferation was assessed with the MTS Assay CELLTITER 96® Aqueous Cell Proliferation Assay (Promega) or the Cell Proliferation ELISA, BrdU colorimetric assay (Roche). For the MTS, the absorbance of the formazan product was measured at 490 nanometer using the iMARK microplate reader from BIORAD. The BrdU ELISA assay is based on detection of BrdU incorporated into the genomic DNA of proliferating cells and an anti-BrdU antibody, the reaction product was quantified by measuring the absorbance at 370 nanometers using iMARK microplate reader from BIORAD. Cell numbers were also assessed initially by cell counts to confirm MTS/BrdU data. Experiments were done at least three times to confirm data.

Another assay concerns H2122 NSCLC cells. The experiment in a line: NSCLC cell proliferation in vitro (MTS assay). In kind it is cell-based, human. Conditions: 72 hours. The protocol: as §1, §2
Assay [1] has as its system MCF-7 breast cancer cells. The experiment in a line: MCF-7 breast cancer cell proliferation (BrdU ELISA) in presence of estradiol-17β. Conditions: Homo sapiens, MCF7; 72 hrs in the presence of 1 nM estradiol-17β, BrdU ELISA; read-out: IC50 for inhibition of cell proliferation, MCF-7. In kind it is cell-based, human. The protocol: In experiments to assess potential proliferative effects of novel estrogen receptor ligands, human breast cancer cells were grown in phenol red-free, estrogen-free media with 1% dextran-coated charcoal-treated (DCC)-fetal bovine serum (FBS) for 48 hrs (15,44), then treated with either 1 μM or 50 μM doses of estrogen receptor antagonists in the presence of 1 nM estradiol-17β. Cell counts and viability tests (Trypan blue) were done every 24 hr for 3 days. After 72 hr, proliferation was assessed using the BrdU Cell proliferation ELISA (Roche). Cell numbers were also assessed initially by cell counts to confirm ELISA data. Each antiestrogen was tested at least in three different experiments.
In order to assess the antitumor action of novel estrogen receptor antagonists, we cultured human MCF-7 breast cancer cells with known expression of ERα. Cells were grown in 1% DCC-FBS for 48 hr and then treated with vehicle control or either 1 μM or 50 μM concentrations of antiestrogens JD 101-160 or the pure antiestrogen fulvestrant (FAS), all in the presence of 1 nM estradiol-170. […] Shown in FIG. 2A are results from MCF-7 cells grown in 1% DCC-FBS for 48 hr and then treated with vehicle control, 1 nM estradiol-170 and either 1 μM or 50 μM concentrations of antiestrogens JD 101-160 or the known pure antiestrogen fulvestrant (FAS) in the presence of 1 nM estradiol-170. Cell proliferation is expressed as percentage of that determined in the 1 nM estradiol-170-treated control group.
as §2
A general note: Incorporation of labelled thymidine or its analogues reports DNA synthesis.

For the next assay, the system named is Rb serine-780. Nature of the assay: Rb serine-780 phosphorylation, Western blot in A549 cells. In kind it is cell-based, human. To be noted: 24 h, 1% DCC-FBS, 1 nM E2, 1 nM androstenedione, 10 nM testosterone, 10 μM letrozole, 100 nM palbociclib, FIG. 4C. The protocol: FIG. 4C. […] Cells were treated 24 h in phenol red-free RPMI with 1% DCC-FBS with vehicle control (CON), 1 nM estradiol-17β (E2), 1 nM androstenedione (And), 10 nM testosterone (Tes), 10 μM letrozole (AI), 100 nM palbociclib (Plbo) or both Plbo+AI. After 24 hr, cell lysates subjected to Western blot with antibody to phosphoserine-780 Rb or total Rb (Cell Signaling) (20). GAPDH is used as loading control.
To investigate the antitumor efficacy of CDK 4/6 inhibitor palbociclib in NSCLC cells, we assessed the effects of palbociclib alone and in combination with the hormonal therapeutic letrozole (see FIGS. 4B and 5B). The potential mechanism of action of palbociclib and letrozole in NSCLC cells was investigated by assay of the effects of these agents alone and combined on phosphorylation of Rb serine-780
For orientation: In western blotting, separated proteins are transferred to a membrane and probed.

A further assay has as its system MCF-7 parental cells. To be noted: MCF-7 parental xenografts in nude mice; cited from earlier work.
For another assay, the system named is MCF-7/HER-2 cells. To be noted: MCF-7 cells with HER2-overexpression, xenografts in nude mice; cited from earlier work.
For a further assay, the system named is ER+ early breast cancer. Conditions: cited from earlier work.
Setting [2] is: Homo sapiens, A549, CDK 4/6 inhibitor without SERD, 5% DCC-FBS, read-out: IC50 for inhibition of NSCLC cell proliferation, A549.
Where [3] appears, read: Homo sapiens, NCI-H1975, CDK 4/6 inhibitor without SERD, 5% DCC-FBS, read-out: IC50 for inhibition of NSCLC cell proliferation, H1975.
Setting [4] is: Homo sapiens, NCI-H2122, CDK 4/6 inhibitor without SERD, 5% DCC-FBS, read-out: IC50 for inhibition of NSCLC cell proliferation, H2122.
Setting [5] is: Homo sapiens, A549, SERD alone, estrogen-depleted phenol red-free medium with 5% DCC-FBS, read-out: IC50 for inhibition of NSCLC cell proliferation, A549.
The mark [6] stands for this setting: Homo sapiens, NCI-H1975, SERD alone, estrogen-depleted phenol red-free medium with 5% DCC-FBS, read-out: IC50 for inhibition of NSCLC cell proliferation, H1975.
[7] abbreviates: Homo sapiens, NCI-H2122, SERD alone, estrogen-depleted phenol red-free medium with 5% DCC-FBS, read-out: IC50 for inhibition of NSCLC cell proliferation, H2122.

For `CCN1CCN(Cc2ccc(Nc3ncc(F)c(-c4cc(F)c5nc(C)n(C(C)C)c5c4)n3)nc2)CC1` [Abemaciclib, abemaciclib, reference compound], the figures for the pIC50 in the assay on A549 NSCLC cells (setting [2]), with H1975 NSCLC cells (setting [3]) and with H2122 NSCLC cells (setting [4]) were 6.00, 6.08 and 6.48, respectively.
Take `C[C@]12C[C@H](Oc3ccc(NC(=O)CN4CCOCC4)cc3)[C@@H]3c4ccc(O)cc4CC[C@H]3[C@@H]1CC[C@@H]2O` [JD103, N-(4-(((8S,9S,11S,13S,14S,17S)-3,17-Dihydroxy-13-methyl-7,8,9,11,12,13,14,15,16,17-deca-hydro-6H-cyclopenta[a]phenanthren-11-yl)oxy)phenyl)-2-morpholinoacetamide]: the pIC50 in the assay on A549 NSCLC cells (setting [5]) was 5.70; in the assay on A549 NSCLC cells (in the presence of 1 μM abemaciclib, 5% DCC-FBS, read-out: IC50 of SERD for inhibition of NSCLC cell proliferation, A549), 6.25; in the assay with A549 NSCLC cells (in the presence of 1 μM palbociclib, 5% DCC-FBS, read-out: IC50 of SERD for inhibition of NSCLC cell proliferation, A549), 5.91; in the assay with H1975 NSCLC cells (setting [6]), 5.68; with H1975 NSCLC cells (in the presence of 1 μM abemaciclib, 5% DCC-FBS, read-out: IC50 of SERD for inhibition of NSCLC cell proliferation, H1975), 5.57; in the assay with H1975 NSCLC cells (in the presence of 1 μM palbociclib, 5% DCC-FBS, read-out: IC50 of SERD for inhibition of NSCLC cell proliferation, H1975), 5.34. Further, the pIC50 was 5.88 in the assay with H2122 NSCLC cells (setting [7]); 6.13 with H2122 NSCLC cells (in the presence of 1 μM abemaciclib, 5% DCC-FBS, read-out: IC50 of SERD for inhibition of NSCLC cell proliferation, H2122); 5.62 with H2122 NSCLC cells (in the presence of 1 μM palbociclib, 5% DCC-FBS, read-out: IC50 of SERD for inhibition of NSCLC cell proliferation, H2122); 6.13 in assay [1].
Take `C[C@]12C[C@H](Oc3ccc(NCCN4CCOCC4)cc3)[C@@H]3c4ccc(O)cc4CC[C@H]3[C@@H]1CC[C@@H]2O` [JD121]: the pIC50 was 5.90 in the assay with A549 NSCLC cells (setting [5]), 5.58 in the assay on H1975 NSCLC cells (setting [6]), 4.84 with H2122 NSCLC cells (setting [7]) and 6.44 in assay [1].
As for `CN(C)CCCC(=O)Nc1ccc(O[C@H]2C[C@]3(C)[C@@H](O)CC[C@H]3[C@@H]3CCc4cc(O)ccc4[C@H]32)cc1C(F)(F)F` [JD155, N-(4-(((8S,9S,11S,13S,14S,17S)-3,17-Dihydroxy-13-methyl-7,8,9,11,12,13,14,15,16,17-deca-hydro-6H-cyclopenta[a]phenanthren-11-yl)oxy)-2-(trifluoromethyl)phenyl)-4-(dimethylamino)butanamide], the pIC50 was 5.69 in the assay with A549 NSCLC cells (setting [5]), 5.36 in the assay with H1975 NSCLC cells (setting [6]) and 5.91 in the assay with H2122 NSCLC cells (setting [7]).
Turning to `C[C@]12C[C@H](Oc3ccc(NC(=O)CCCCN4CCCCC4)c(C(F)(F)F)c3)[C@@H]3c4ccc(O)cc4CC[C@H]3[C@@H]1CC[C@@H]2O` [JD156, N-(4-(((8S,9S,11S,13S,14S,17S)-3,17-Dihydroxy-13-methyl-7,8,9,11,12,13,14,15,16,17-deca-hydro-6H-cyclopenta[a]phenanthren-11-yl)oxy)-2-(trifluoromethyl)phenyl)-5-(piperidin-1-yl)pentanamide], the values for the pIC50 in the assay on A549 NSCLC cells (setting [5]), in the assay with H1975 NSCLC cells (setting [6]) and in the assay on H2122 NSCLC cells (setting [7]) were 5.80, 5.49 and 5.77, respectively.
For `C[C@]12C[C@H](Oc3ccc(NC(=O)CCCCN4CCOCC4)c(C(F)(F)F)c3)[C@@H]3c4ccc(O)cc4CC[C@H]3[C@@H]1CC[C@@H]2O` [JD157, N-(4-(((8S,9S,11S,13S,14S,17S)-3,17-Dihydroxy-13-methyl-7,8,9,11,12,13,14,15,16,17-deca-hydro-6H-cyclopenta[a]phenanthren-11-yl)oxy)-2-(trifluoromethyl)phenyl)-5-morpholino-pentanamide], the pIC50 is 5.40 with A549 NSCLC cells (setting [5]), 5.74 in the assay on H1975 NSCLC cells (setting [6]) and 5.89 in the assay with H2122 NSCLC cells (setting [7]).
For `C[C@]12C[C@H](Oc3ccc(NC(=O)CCCN4CCCCC4)c(C(F)(F)F)c3)[C@@H]3c4ccc(O)cc4CC[C@H]3[C@@H]1CC[C@@H]2O` [JD160, N-(4-(((8S,9S,11S,13S,14S,17S)-3,17-Dihydroxy-13-methyl-7,8,9,11,12,13,14,15,16,17-deca-hydro-6H-cyclopenta[a]phenanthren-11-yl)oxy)-2-(trifluoromethyl)phenyl)-4-(piperidin-1-yl)butanamide], the pIC50 is 5.85 in the assay with A549 NSCLC cells (setting [5]), 5.69 in the assay on H1975 NSCLC cells (setting [6]), 5.57 with H2122 NSCLC cells (setting [7]) and 6.49 in assay [1].
Take `CC(=O)c1c(C)c2cnc(Nc3ccc(N4CCNCC4)cn3)nc2n(C2CCCC2)c1=O` [Palbociclib, palbociclib, reference compound]: the results for the pIC50 with A549 NSCLC cells (setting [2]), with H1975 NSCLC cells (setting [3]) and in the assay with H2122 NSCLC cells (setting [4]) were 5.52, 5.93 and 6.06, respectively.
Consider `C[C@]12CCC(=O)C=C1CC[C@@H]1[C@@H]2CC[C@]2(C)C(=O)CC[C@@H]12` [androstenedione], for which the “phosphorylation of Rb serine-780” value in the assay with Rb serine-780 is recorded as “stimulate Rb phosphorylation”.
In the case of `CC/C(=C(\c1ccccc1)c1ccc(OCCN(C)C)cc1)c1ccccc1` [tamoxifen], the “growth of parent tumors (xenografts)” value in the assay on MCF-7 parental cells is given as “suppressed”. The “sensitivity of MCF-7/HER-2 xenografts” value with MCF-7/HER-2 cells is recorded as “insensitive”. Moreover, in the assay on ER+ early breast cancer, the “reduction in disease recurrence” value was 39% and the reduction in mortality is 31%.
Take `C[C@]12CC[C@H]3[C@@H](CCC4=CC(=O)CC[C@@]43C)[C@@H]1CC[C@@H]2O` [testosterone]: the “phosphorylation of Rb serine-780” value in the assay on Rb serine-780 is “stimulate Rb phosphorylation”.

Values taken from US10918648B2, “Estrogen receptor modulator combinations” (The Regents of the University of California, priority 2016, dated 2021).
